# “Also recorded” adds a separate entry of the source.
# Legend:
# C15a [1] = assay: Inhibition of virus binding and replication by preincubation with heparin, HS or glycans: C15a; format: cell-based, rhinovirus C; details: for inhibition of virus binding to HeLa-E8 cells: heparin or HS 1-2 mg/ml preincubation
# Method: (§1) FIGS. 4A-4E—Heparin and heparan sulfate effects. (A) Virus samples (5×10^5 PFUe) were incubated with heparin (2 mg/ml) or medium alone (no heparin) for 30 min at 34° C., before inoculation of HeLa-E8 cells. After an attachment period (30 min at room temp, 30 min at 34° C.) the cells were washed (3×PBS), harvested and tested by RT-qPCR for the attached virus RNA signals (means±s.d., n≥3). (*) indicates p<0.05 significance (t-test). (B) C15a and C15 K125 (5×10^5 PFUe) were incubated with heparin or heparan sulfate (1 mg/ml) as in A, before HeLa-E8 infections and virus binding assays. (C) The C15a experiment in A was repeated using different doses of heparin in the preincubation. (D) HeLa-E8 cells (12 well-plates) were treated (37° C., 2 h) with the indicated dose (U) of heparinase I before inoculation with C15a virus (5×10^5 PFUe) and tested for virus binding as in A. (E) C15a and recombinant C15 K125/K41 viruses (5×10^5 PFUe) were incubated with heparin (1 mg/ml, 30 min, 34° C.) before inoculation of HeLa-E8 or HeLa-H1 cells. After an attachment period (30 min at room temp, 30 min at 34° C.), the cells were washed with PBS (3×). Cells were harvested and assayed for the attached virus (1 h p.i.) and progeny virus (24 h p.i.) RNA signals by RT-qPCR (means±s.d., n=3).
# FIGS. 9A-9B—Glycan effects on virus binding assays. (A) Recombinant C15 or (B) polyclonal C15a were incubated in media with the indicated sialylated glycans (1 mg/ml, see below) before being tested for binding to HeLa-E8 cells. Virus (5×10^5 PFUe) and glycan were mixed (30 min, 34° C.), then added to plated cells (30 min, room temp), before the samples were again incubated at 34° C. for an additional 30 min. The cells were washed (3×) before total RNA was extracted and assayed for C15 titer by RT-qPCR. For SNA and MALII samples, the cells, rather than virus were pretreated (100 μg/ml for 30 min, room temp) before the virus addition step. The plotted values are the averages of duplicate samples (n=2). Glycan reagents include: SLN 2-3 (3′-Sialy-N-acetyllactosamine, V-Labs, Inc), 1 mg/ml; SLN 2-6 (6′-Sialy-N-acetyllactosamine, V-Labs, Inc), 1 mg/ml; SLN 2-8 (Neu5Ac2-8Neu5Ac2-8Neu5Ac-sp-biotin, GlycoTech), 1 mg/ml; GlcNac 1-4 (GlcNAcb1-4GlcNAcb-sp-biotin, GlycoTech), 1 mg/ml; SNA (Sambucus Nigra Lectin, Vector Laboratories), 100 μg/ml; MAUI (Maackia Amurensis Lectin, Vector Laboratories), 100 μg/ml.
# (§2) Purified virus (5×10^5 PFUe) was pre-incubated with tested compounds (sialic acid and sugar di- or trisaccharides, heparin or HS) for 30 min at 34° C. before inoculation of HeLa cell monolayers (30 min, room temp; 30 min, 34° C.). Cells were washed three times with PBS, lysed with the RLT buffer (Qiagen) and stored at −80° C. before total RNA extraction and RT-qPCR for C15. For SNA and MAUI samples, the cells, rather than virus were pretreated (100 μg/ml for 30 min, room temp) before the virus addition step. HeLa-E8 cells were washed with PBS containing 1 mM MgCl2 and 1 mM CaCl2 (PBS^++) and incubated for 2 hours at 37° C. with 2.5-10 U of heparinase I in PBS^++ before inoculation with purified virus (10^6 PFUe) for 1 hour at 34° C.
# C15 K125 = assay: Inhibition of virus binding by preincubation with heparin or HS: C15 K125; format: cell-based, rhinovirus C; details: for inhibition of virus binding to HeLa-E8 cells: heparin or HS 1-2 mg/ml preincubation
# Method: as §1, §2
# Ala viruses = assay: Inhibition of virus binding by preincubation with heparin: Ala; format: cell-based; details: heparin 2 mg/ml preincubation
# Method: as §1, with “n=3). […]” for “n=3).”
# recombinant C15 K125/K41 = assay: Inhibition of virus binding and replication by preincubation with heparin: recombinant C15 K125/K41; format: cell-based, rhinovirus C; details: heparin 1 mg/ml
# Method: as §1, with “n=3). […]” for “n=3).”
# unadapted C15 virus = assay: Inhibition of virus binding by preincubation with heparin: unadapted C15; format: cell-based, rhinovirus C; details: heparin 2 mg/ml preincubation
# Method: as §1, with “n=3). […]” for “n=3).”
# A16 = assay: Inhibition of virus binding by preincubation with heparin: A16; format: cell-based, RV-A; details: heparin 2 mg/ml preincubation
# Method: as §1, with “n=3). […]” for “n=3).”
# C15a [2] = assay: Heparinase I pretreatment of HeLa-E8 cells, virus binding: C15a; format: cell-based, rhinovirus C
# Method: as §1, with “n=3). […]” for “n=3).”
# RV-C15-K125 = assay: Heparinase I treatment, virus binding to HeLa-E8: RV-C15-K125; format: cell-based, rhinovirus C
# Method: as §2
# Receptor specificity switch has been documented for some major receptor group RVs (e.g. RV-A89) that were adapted for growth in ICAM-1-deficient cells by serial or alternate passages in HEp-2 and HeLa cells (Reischl et al., 2001; Vlasak et al., 2005). A HEp-2-adapted RV-A89 variant can utilize HS proteoglycans as a cellular receptor (Vlasak et al., 2005). […] In contrast to RV-A89, RV-C15 adaptation by passaging in HeLa cells occurred in the absence of selective pressure for binding specificity change. This process has also been observed in some other picornaviruses and alphaviruses (Sa-Carvalho et al., 1997; Klimstra et al., 1998; Smit et al., 2002). […]
# [3] = heparin 2 mg/ml, 30 min 34° C. preincubation, 5×10^5 PFUe, HeLa-E8
Substance,inhibition of virus binding to HeLa-E8 cells (C15a [1]),inhibition of virus binding to HeLa-E8 cells (C15 K125),"dose dependence of inhibition of binding (C15a [1]; different doses of heparin in the preincubation, HeLa-E8)","effect of heparin on binding and replication in HeLa-H1 cells (C15a [1]; heparin 1 mg/ml, 1 h and 24 h p.i.)","replication in HeLa-E8 cells despite the heparin treatment (C15a [1]; heparin 1 mg/ml, 24 h p.i.)",reduction of binding titer by heparin (C15a [1]; [3]),effect of heparin on virus interaction with HeLa-E8 cells (Ala viruses),effect of heparin on binding and replication in HeLa-H1 cells (recombinant C15 K125/K41; 1 h and 24 h p.i.),replication in HeLa-E8 cells despite the heparin treatment (recombinant C15 K125/K41; 24 h p.i.),effect of heparin on virus interaction with HeLa-E8 cells (unadapted C15 virus),effect of heparin on virus interaction with HeLa-E8 cells (A16),reduction of binding titer by heparin (C15 K125; [3]),"reduction of C15a binding after heparinase I pretreatment of HeLa-E8 cells (C15a [2]; 2.5-10 U heparinase I, 37° C., 2 h)",inhibition of virus binding to HeLa-E8 cells (C15a [2]; heparinase I treatment),inhibition of virus binding to HeLa-E8 cells (RV-C15-K125)
heparan sulfate [HS],had this effect; also recorded: inhibited,had this effect; also recorded: inhibited,,,,,,,,,,,,,
heparin,inhibited,inhibited,dependent upon the dose,abolished,still replicated (to a degree),17 fold,not affected,abolished,still replicated (to a degree),not affected,not affected,44 fold,,,
heparinase I,,,,,,,,,,,,,more than 7 fold,inhibited,inhibited

# Source: patent US10253300B2, “Adapted rhinovirus C” (Wisconsin Alumni Research Foundation, priority 2015, dated 2019)
